The values below come from patent US20070249634A1, “Triazolopyrimidine Compounds and Use Thereof for Controlling Harmful Fungi” (priority 2004, published 2007).

`CC1CCN(c2c(-c3cc([N+](=O)[O-])ccc3Cl)c(Cl)nc3ncnn23)CC1` [compound 56, 5-chloro-6-(2-chloro-5-nitrophenyl)-7-(4-methylpiperidin-1-yl)-[1,2,4]-triazolo[1,5-a]pyrimidine] yielded a melting point of 199 to 204 °C.
